Measurements published in patent publication US20100197602A1, “USE OF FOLLICULAR GONADOTROPIN RELEASING PEPTIDE AS A THERAPEUTIC AGENT IN THE TREATMENT OF STREPTOCOCCUS PNEUMONIAE INFECTION” (priority 2007, published 2010).
Residues, ends and D or L forms follow the SMILES beside them.

Key:
HIV-1IIIB = experiment: HIV-1 antiviral assay (CPE reduction, MTS); type: cell-based; details: peptide 10 micrograms per ml, 6 days post-infection
Pseudomonas aeruginosa = type: cell-based; details: 5 micrograms per ml
Streptococcus pneumoniae = type: cell-based; details: 5 micrograms per ml
MRSA = details: 5 micrograms per ml
in vitro [1] = details: human, CEM-SS cells
in vitro [2] = details: human, MRC-5 cells (human embryonal lung fibroblasts)
[3] = Cell viability in HepG2-2.2.15 cells (dye uptake) of the HBV assay; details: human
HCMV strain AD169 = experiment: HCMV plaque reduction assay; type: cell-based; details: HCMV AD169 in MRC-5 cells; peptide 10 micrograms per ml; 7-10 days
Source text: Ganciclovir was used as positive control.

Cc1cn([C@H]2C[C@H](N=[N+]=[N-])[C@@H](CO)O2)c(=O)[nH]c1=O [AZT]
% CPE reduction in HIV-1 infected CEM-SS cells (HIV-1IIIB): 99%

C[C@@H](O)[C@H](N)C(=O)N[C@@H](CC(=O)O)C(=O)N[C@H](C(=O)N[C@@H](CO)C(=O)N[C@@H](Cc1c[nH]cn1)C(=O)N[C@@H](Cc1c[nH]cn1)C(=O)N[C@@H](CC(=O)O)C(=O)N[C@@H](CCC(N)=O)C(=O)N[C@@H](CC(=O)O)C(=O)N[C@@H](Cc1c[nH]cn1)C(=O)N1CCC[C@H]1C(=O)N[C@H](C(=O)N[C@@H](Cc1ccccc1)C(=O)N[C@@H](CC(N)=O)C(=O)O)[C@@H](C)O)[C@@H](C)O [FGRP, Thr-Asp-Thr-Ser-His-His-Asp-Gln-Asp-His-Pro-Thr-Phe-Asn-OH] (H-TDTSHHDQDHPTFN-OH)
% inhibition (Pseudomonas aeruginosa): 0.0% | % inhibition (Streptococcus pneumoniae): 100.0% | % inhibition (MRSA): 0.0% | viability at 10 micrograms per ml (in vitro [1]): 100% | viability at 144 h (in vitro [2]): 100% | viability at 144 h, 10 micrograms per ml [3]: 100%

Nc1nc(O)c2ncn(COC(CO)CO)c2n1 [Ganciclovir]
% plaque reduction (HCMV strain AD169): 100%
